# Assay results: paper PMC4272272 (PLoS ONE, 2014)
# Where two headings read alike, the source gives them in different places.
# Legend:
# [1] = design: method as in PMID 23445717; details: cited from earlier work
# [2] = test system: albumin and α-acidic glycoprotein; details: plasma protein binding; cited from earlier work
# Text: Insulin treatment remains the main therapy for the control of hyperglycemia in diabetic patients with ESRD requiring hemodialysis, but it sometimes induces severe hypoglycemia.
# [3] = cited from earlier work; for Liraglutide AUC lower than in healthy subjects, on average: single dose, ref 1 (Jacobsen et al., 2009) of supplement
# [4] = Safety assessment (adverse events, physical examination, vital signs) after liraglutide; type: in vivo, human; details: off-hemodialysis (day 2) or on-hemodialysis (day 3); 0.6 or 0.9 mg s.c.; 10 patients
# Description: The severity and causal relationship to liraglutide of all treatment-related adverse events in these patients were assessed by the investigators. A physical examination, including vital signs (blood pressure and heart rate) and clinical laboratory biochemical tests, was also performed on each patient.
# [5] = test system: plasma glucose; details: CGM, mean ± SD, n = 10
# [6] = design: method as in earlier work; details: ref 2 (Ishida et al., 2011) of supplement, cited from earlier work
# [7] = human, in vivo; cited from earlier work
compound,measurement,setting,value
CCCCCCCCCCCCCCCC(=O)N[C@@H](CCC(=O)NCCCC[C@H](NC(=O)[C@H](C)NC(=O)[C@H](C)NC(=O)[C@H](CCC(N)=O)NC(=O)CNC(=O)[C@H](CCC(=O)O)NC(=O)[C@H](CC(C)C)NC(=O)[C@H](Cc1ccc(O)cc1)NC(=O)[C@H](CO)NC(=O)[C@H](CO)NC(=O)[C@@H](NC(=O)[C@H](CC(=O)O)NC(=O)[C@H](CO)NC(=O)[C@@H](NC(=O)[C@H](Cc1ccccc1)NC(=O)[C@@H](NC(=O)CNC(=O)[C@H](CCC(=O)O)NC(=O)[C@H](C)NC(=O)[C@@H](N)Cc1cnc[nH]1)[C@@H](C)O)[C@@H](C)O)C(C)C)C(=O)N[C@@H](CCC(=O)O)C(=O)N[C@@H](Cc1ccccc1)C(=O)N[C@H](C(=O)N[C@@H](C)C(=O)N[C@@H](Cc1c[nH]c2ccccc12)C(=O)N[C@@H](CC(C)C)C(=O)N[C@H](C(=O)N[C@@H](CCCNC(=N)N)C(=O)NCC(=O)N[C@@H](CCCNC(=N)N)C(=O)NCC(=O)O)C(C)C)[C@@H](C)CC)C(=O)O [liraglutide],Adverse events,"[1]; 0.3 mg/day, nine diabetic Japanese patients with ESRD",no adverse events
same,Mean period of hypoglycemia after liraglutide administration,"[1]; 0.3 mg, diabetic patients with ESRD undergoing hemodialysis",approximately 50 min/day
same,Liraglutide binding to albumin and α-acidic glycoprotein,[2],approximately 99%
same,"Liraglutide AUC lower than in healthy subjects, on average",[3]; end-stage renal disease,26%
same,"Liraglutide AUC lower than in healthy subjects, on average",[3]; mild renal impairment,33%
same,"Liraglutide AUC lower than in healthy subjects, on average",[3]; moderate renal impairment,14%
same,"Liraglutide AUC lower than in healthy subjects, on average",[3]; severe renal impairment,27%
same,Adverse events,"[3]; single injection 0.75 mg, non-diabetic Caucasian patients with varying degrees of renal impairment",2 events of vomiting and 1 event of nausea
same,"Adverse events, including signs of hypoglycemia",[4],No adverse events
same,AUC during 24 hr in hyperglycemia (>180 mg/dL),[5]; off-hemodialysis (day 2),7746.0 ± 17246.4 mg·min/dL
same,MAGE (mean amplitude of glycemic excursions),[5]; off-hemodialysis (day 2),55.6 ± 27.4 mg/dL
same,Minimum glucose level,[5]; off-hemodialysis (day 2),92.7 ± 27.1 mg/dL
same,Time during 24 hr in hyperglycemia (>180 mg/dL),[5]; off-hemodialysis (day 2),214.5 ± 388.4 min
same,AUC during 24 hr in hyperglycemia (>180 mg/dL),[5]; on-hemodialysis (day 3),11427.5 ± 19184.4 mg·min/dL
same,MAGE (mean amplitude of glycemic excursions),[5]; on-hemodialysis (day 3),90.0 ± 65.7 mg/dL
same,Minimum glucose level,[5]; on-hemodialysis (day 3),88.4 ± 21.4 mg/dL
same,Time during 24 hr in hyperglycemia (>180 mg/dL),[5]; on-hemodialysis (day 3),210.0 ± 282.9 min
same,Patients withdrawn from liraglutide treatment due to nausea,[6]; 19 patients switched from insulin,Two patients
same,Hypoglycemia symptoms after the switch to liraglutide,[6]; 30% of the subjects complained before the switch,not observed
same,Glycosylated haemoglobin 1c (HbA1c) after one month of liraglutide,"[6]; from 5.3±0.5 before the switch from insulin, p= 0.07, 19 patients",5.1±0.5
same,Glycoalbumin (GA) after one-month treatment of liraglutide,"[6]; from 21.0±2.2 before the switch from insulin, p= 0.02, 19 patients",19.4±2.4%
exenatide,AUC0–∞ in non-diabetic patients with ESRD relative to healthy controls,[7],3.37 times
same,Cmax in non-diabetic patients with ESRD relative to healthy controls,[7],1.38 times
